Patent publication US10618918B2, “Substituted boronic acids as antimicrobials” (priority 2015, dated 2020)
Where two headings read alike, the source gives them in different places.

Experiments:
[1] = test system: ec302 TEM-10; assay: Aztreonam potentiation (MPC@4), strain ec302 TEM-10; settings: minimum BLI concentration inhibiting growth with aztreonam 4 μg/mL; tested up to 40 μg/mL
[2] = test system: KP1005 CTX-M-14; assay: Tigemonam potentiation (MPC@4), strain KP1005 CTX-M-14; settings: minimum BLI concentration inhibiting growth with tigemonam 4 μg/mL; tested up to 40 μg/mL
[3] = test system: KP1086 OXA-48; assay: Biapenem potentiation (MPC@1), strain KP1086 OXA-48; type: cell-based; settings: minimum BLI concentration inhibiting growth with biapenem 1 μg/mL; tested up to 40 μg/mL
Procedure: (§1) Biapenem was present in the test medium at 1 μg/mL. […] Table 3 summarizes the BLI potency of biapenem potentiation (MPC@1) for two strains overexpressing class A (KPC) and class D (OXA-48) carbapenemases. Biapenem MIC for each strain is also shown.

[4] = test system: KP1004 KPC-2; assay: Biapenem potentiation (MPC@1), strain KP1004 KPC-2; type: cell-based; settings: minimum BLI concentration inhibiting growth with biapenem 1 μg/mL; tested up to 40 μg/mL
Procedure: as §1

[5] = test system: ECL1002; assay: Aztreonam potentiation (MPC@4), strain ECL1002; settings: minimum BLI concentration inhibiting growth with aztreonam 4 μg/mL; tested up to 40 μg/mL
[6] = test system: KP1009 CTX-M-15; assay: Aztreonam potentiation (MPC@4), strain KP1009 CTX-M-15; settings: minimum BLI concentration inhibiting growth with aztreonam 4 μg/mL; tested up to 40 μg/mL
[7] = test system: KP1004 KPC-2; assay: Aztreonam potentiation (MPC@4), strain KP1004 KPC-2; settings: minimum BLI concentration inhibiting growth with aztreonam 4 μg/mL; tested up to 40 μg/mL
[8] = test system: KP1010 SHV-12; assay: Aztreonam potentiation (MPC@4), strain KP1010 SHV-12; settings: minimum BLI concentration inhibiting growth with aztreonam 4 μg/mL; tested up to 40 μg/mL
[9] = target: purified class A, C and D enzymes (β-lactamases) (Escherichia coli, UniProt Q9L5C7); assay: biochemical; type: biochemical
Sequence of purified class A, C and D enzymes (β-lactamases) (Escherichia coli, UniProt Q9L5C7) (Q9L5C7 entry or part of it): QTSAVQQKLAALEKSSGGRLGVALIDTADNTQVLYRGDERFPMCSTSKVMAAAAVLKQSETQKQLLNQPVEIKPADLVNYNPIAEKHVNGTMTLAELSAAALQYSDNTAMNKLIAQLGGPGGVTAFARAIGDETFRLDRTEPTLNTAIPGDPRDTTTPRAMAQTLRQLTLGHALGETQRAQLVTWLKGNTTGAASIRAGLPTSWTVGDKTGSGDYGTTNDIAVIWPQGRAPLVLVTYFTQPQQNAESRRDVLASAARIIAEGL

[10] = target: purified class A, C and D enzymes (β-lactamases) (Klebsiella pneumoniae, UniProt Q6XEC0); assay: biochemical; type: biochemical
[11] = target: purified class A, C and D enzymes (β-lactamases) (Klebsiella pneumoniae, UniProt Q9F663); assay: biochemical; type: biochemical
[12] = test system: EC1010 CMY-6; assay: Aztreonam potentiation (MPC@4), strain EC1010 CMY-6; settings: minimum BLI concentration inhibiting growth with aztreonam 4 μg/mL; tested up to 40 μg/mL
[13] = test system: ec308 SHV-5; assay: Aztreonam potentiation (MPC@4), strain ec308 SHV-5; settings: minimum BLI concentration inhibiting growth with aztreonam 4 μg/mL; tested up to 40 μg/mL
[14] = test system: AB1053 OXA-72; assay: Meropenem potentiation (MPC@8), strain AB1053 OXA-72; type: cell-based, Acinetobacter baumannii; settings: minimum BLI concentration inhibiting growth with meropenem 8 μg/mL; tested up to 20 μg/mL
[15] = test system: AB1054 OXA-23; assay: Meropenem potentiation (MPC@8), strain AB1054 OXA-23; type: cell-based, Acinetobacter baumannii; settings: minimum BLI concentration inhibiting growth with meropenem 8 μg/mL; tested up to 20 μg/mL
[16] = target: T1, purified class A, C and D enzymes (β-lactamases) (Pseudomonas aeruginosa, UniProt P24735); assay: biochemical; type: biochemical
T1 construct: rows headed: Ki (Pa-AmpC, NCF), uM; other: purified Pa-AmpC; nitrocefin (NCF) as reporter substrate
T1 sequence (P24735 whole entry): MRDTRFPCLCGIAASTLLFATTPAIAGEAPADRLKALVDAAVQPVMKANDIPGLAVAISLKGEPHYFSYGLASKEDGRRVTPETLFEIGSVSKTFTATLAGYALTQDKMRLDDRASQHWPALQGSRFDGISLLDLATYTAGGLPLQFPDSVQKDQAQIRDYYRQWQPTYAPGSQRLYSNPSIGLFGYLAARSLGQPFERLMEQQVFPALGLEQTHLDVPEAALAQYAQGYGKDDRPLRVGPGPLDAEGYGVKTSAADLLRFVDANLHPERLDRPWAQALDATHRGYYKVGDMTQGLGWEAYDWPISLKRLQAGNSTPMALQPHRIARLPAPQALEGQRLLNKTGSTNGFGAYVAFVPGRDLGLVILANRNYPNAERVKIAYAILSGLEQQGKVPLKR

[17] = target: purified class A, C and D enzymes (β-lactamases) (Enterobacter cloacae, UniProt P05364); assay: biochemical; type: biochemical
Sequence of purified class A, C and D enzymes (β-lactamases) (Enterobacter cloacae, UniProt P05364) (P05364 21-381): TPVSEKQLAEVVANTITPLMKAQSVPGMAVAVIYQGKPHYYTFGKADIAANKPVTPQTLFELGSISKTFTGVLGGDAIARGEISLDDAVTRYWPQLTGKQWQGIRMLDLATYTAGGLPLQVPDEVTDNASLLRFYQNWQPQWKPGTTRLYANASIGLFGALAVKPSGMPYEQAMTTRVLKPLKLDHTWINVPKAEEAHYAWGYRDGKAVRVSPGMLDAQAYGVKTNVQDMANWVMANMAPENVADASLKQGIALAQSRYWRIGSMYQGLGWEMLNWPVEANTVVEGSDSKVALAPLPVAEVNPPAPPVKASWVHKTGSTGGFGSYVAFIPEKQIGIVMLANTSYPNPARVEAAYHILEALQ

[18] = target: T2, purified class A, C and D enzymes (β-lactamases) (Acinetobacter baumannii, UniProt Q9L4P2); assay: biochemical; type: biochemical; settings: purified OXA-23; nitrocefin (NCF) as reporter substrate
T2 construct: rows headed: Ki (OXA-23, NCF), uM; other: purified OXA-23; nitrocefin (NCF) as reporter substrate
T2 sequence (Q9L4P2 whole entry): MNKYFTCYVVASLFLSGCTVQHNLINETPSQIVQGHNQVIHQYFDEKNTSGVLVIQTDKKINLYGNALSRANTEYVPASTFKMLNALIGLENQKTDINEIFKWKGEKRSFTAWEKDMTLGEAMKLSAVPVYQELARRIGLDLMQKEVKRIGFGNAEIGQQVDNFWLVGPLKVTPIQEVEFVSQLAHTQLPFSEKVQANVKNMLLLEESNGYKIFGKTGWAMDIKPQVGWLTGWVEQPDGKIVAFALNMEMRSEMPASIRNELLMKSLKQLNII

[19] = purified OXA-48, nitrocefin (NCF) as reporter substrate
[20] = purified KPC-2, nitrocefin (NCF) as reporter substrate
[21] = purified Pa-AmpC, nitrocefin (NCF) as reporter substrate, read-out: Ki (Pa-AmpC, NCF)
[22] = purified P99, nitrocefin (NCF) as reporter substrate

Row | Structure (SMILES) | AZT MPC4 TEM-10 ec302 [1] | TIG MPC4 CTX-M-14 KP1005 [2] | BPM MPC1 OXA-48 KP1086 [3] | BPM MPC1 KP1004 KPC-2 [4] | AZT MPC4 ECL1002 [5] | AZT MPC4 CTX-M-15 KP1009 [6] | AZT MPC4 KPC-2 KP1004 [7] | AZT MPC4 SHV-12 KP1010 [8] | AZT MPC4 CMY-6 EC1010 [12] | AZT MPC4 SHV-5 ec308 [13] | MPM MPC8 AB1053 OXA-72 [14] | MPM MPC8 AB1054 OXA-23 [15] | Ki [16] [nM] | Ki (P99, NCF), uM [17] | Ki (OXA-48, NCF), uM [10, 19] | Ki (KPC-2, NCF), uM [11, 20] | Ki [18] [nM] | Ki [16, 21] [nM] | Ki (P99, NCF), uM [17, 22] | also measured
1 | O=C(O)[C@H]1/C(=C/CO)O[C@@H]2CC(=O)N21 [Clavulanic Acid, reference compound] | X (X = MPC@4 ≤ 5 μg/mL) | X (X = MPC@4 ≤ 5 μg/mL) | Z (Z = MPC@1 > 20 μg/mL) | Y (Y = 5 μg/mL < MPC@1 ≤ 20 μg/mL) | Z (Z = MPC@4 > 20 μg/mL) | X (X = MPC@4 ≤ 5 μg/mL) | Z (Z = MPC@4 > 20 μg/mL) | X (X = MPC@4 ≤ 5 μg/mL) | Z (Z = MPC@4 > 20 μg/mL) | X (X = MPC@4 ≤ 5 μg/mL) | – | – | – | – | – | – | – | – | – | Ki (CTX-M-14, NCF), uM [9]: X (key: X = Ki ≤ 0.1 μM; Y = 0.1 μM < Ki ≤ 1 μM; Z = Ki > 1 μM); Ki (OXA-48, NCF), uM [10]: Z (key: X = Ki ≤ 0.1 μM; Y = 0.1 μM < Ki ≤ 1 μM; Z = Ki > 1 μM); Ki (KPC-2, NCF), uM [11]: Z (key: X = Ki ≤ 0.1 μM; Y = 0.1 μM < Ki ≤ 1 μM; Z = Ki > 1 μM)
2 | O=C([O-])c1cc(F)cc2c1O[B-](O)(O)CC2.[Na+].[Na+] [Compound 37, Disodium; 9-fluoro-4,4-dihydroxy-5-oxa-4-boranuidabicyclo[4.4.0]deca-1(6),7,9-triene-7-carboxylate] | Y (Y = 5 μg/mL < MPC@4 ≤ 20 μg/mL) | Z (Z = MPC@4 > 20 μg/mL) | X (X = MPC@1 ≤ 5 μg/mL) | X (X = MPC@1 ≤ 5 μg/mL) | Y (Y = 5 μg/mL < MPC@4 ≤ 20 μg/mL) | Y (Y = 5 μg/mL < MPC@4 ≤ 20 μg/mL) | X (X = MPC@4 ≤ 5 μg/mL) | X (X = MPC@4 ≤ 5 μg/mL) | X (X = MPC@4 ≤ 5 μg/mL) | Y (Y = 5 μg/mL < MPC@4 ≤ 20 μg/mL) | Z (Z = MPC@1 > 20 μg/mL) | Z (Z = MPC@1 > 20 μg/mL) | < 100 | X (key: X = Ki ≤ 0.1 μM; Y = 0.1 μM < Ki ≤ 1 μM; Z = Ki > 1 μM) | X (X = Ki ≤ 0.1 μM) | X (X = Ki ≤ 0.1 μM) | < 100 | – | – | –
3 | O=C([O-])c1ccnc2c1O[B-](O)(O)CC2.[Na+].[Na+] [Compound 38, Disodium; 8,8-dihydroxy-7-oxa-2-aza-8-boranuidabicyclo[4.4.0]deca-1,3,5-triene-5-carboxylate] | Z (Z = MPC@4 > 20 μg/mL) | Z (Z = MPC@4 > 20 μg/mL) | Y (Y = 5 μg/mL < MPC@1 ≤ 20 μg/mL) | X (X = MPC@1 ≤ 5 μg/mL) | Z (Z = MPC@4 > 20 μg/mL) | Z (Z = MPC@4 > 20 μg/mL) | Y (Y = 5 μg/mL < MPC@4 ≤ 20 μg/mL) | Z (Z = MPC@4 > 20 μg/mL) | Y (Y = 5 μg/mL < MPC@4 ≤ 20 μg/mL) | Z (Z = MPC@4 > 20 μg/mL) | Z (Z = MPC@1 > 20 μg/mL) | Z (Z = MPC@1 > 20 μg/mL) | > 1000 | Z (key: X = Ki ≤ 0.1 μM; Y = 0.1 μM < Ki ≤ 1 μM; Z = Ki > 1 μM) | X (X = Ki ≤ 0.1 μM) | Y (Y = 0.1 μM < Ki ≤ 1 μM) | > 1000 | – | – | –
4 | O=C(O)c1c(OC(CO)CO)ccc2c1OB(O)CC2 [Compound 44, 2-hydroxy-7-[2-hydroxy-1-(hydroxymethyl)ethoxy]-3,4-dihydro-1,2-benzoxaborinine-8-carboxylic acid] | Y (Y = 5 μg/mL < MPC@4 ≤ 20 μg/mL) | Z (Z = MPC@4 > 20 μg/mL) | X (X = MPC@1 ≤ 5 μg/mL) | X (X = MPC@1 ≤ 5 μg/mL) | Y (Y = 5 μg/mL < MPC@4 ≤ 20 μg/mL) | Y (Y = 5 μg/mL < MPC@4 ≤ 20 μg/mL) | X (X = MPC@4 ≤ 5 μg/mL) | X (X = MPC@4 ≤ 5 μg/mL) | X (X = MPC@4 ≤ 5 μg/mL) | Y (Y = 5 μg/mL < MPC@4 ≤ 20 μg/mL) | X (X = MPC@1 ≤ 5 μg/mL) | Y (Y = 5 μg/mL < MPC@1 ≤ 20 μg/mL) | – | – | X (X = Ki ≤ 0.1 μM) | X (X = Ki ≤ 0.1 μM) | < 100 | < 100 | X (X = Ki ≤ 0.1 μM) | –
5 | N#CCOc1ccc2c(c1C(=O)O)OB(O)CC2 [Compound 47, 7-(Cyanomethoxy)-2-hydroxy-3,4-dihydro-1,2-benzoxaborinine-8-carboxylic acid] | X (X = MPC@4 ≤ 5 μg/mL) | X (X = MPC@4 ≤ 5 μg/mL) | X (X = MPC@1 ≤ 5 μg/mL) | X (X = MPC@1 ≤ 5 μg/mL) | X (X = MPC@4 ≤ 5 μg/mL) | X (X = MPC@4 ≤ 5 μg/mL) | X (X = MPC@4 ≤ 5 μg/mL) | X (X = MPC@4 ≤ 5 μg/mL) | X (X = MPC@4 ≤ 5 μg/mL) | X (X = MPC@4 ≤ 5 μg/mL) | X (X = MPC@1 ≤ 5 μg/mL) | X (X = MPC@1 ≤ 5 μg/mL) | – | – | X (X = Ki ≤ 0.1 μM) | X (X = Ki ≤ 0.1 μM) | < 100 | < 100 | X (X = Ki ≤ 0.1 μM) | –
6 | N#Cc1ccc2c(c1C(=O)[O-])O[B-](O)(O)CC2.[Na+].[Na+] [Compound 54, Disodium; 8-cyano-4,4-dihydroxy-5-oxa-4-boranuidabicyclo[4.4.0]deca-1(6),7,9-triene-7-carboxylate] | Z (Z = MPC@4 > 20 μg/mL) | Z (Z = MPC@4 > 20 μg/mL) | Z (Z = MPC@1 > 20 μg/mL) | X (X = MPC@1 ≤ 5 μg/mL) | Z (Z = MPC@4 > 20 μg/mL) | Z (Z = MPC@4 > 20 μg/mL) | Z (Z = MPC@4 > 20 μg/mL) | Z (Z = MPC@4 > 20 μg/mL) | Y (Y = 5 μg/mL < MPC@4 ≤ 20 μg/mL) | Z (Z = MPC@4 > 20 μg/mL) | Z (Z = MPC@1 > 20 μg/mL) | Z (Z = MPC@1 > 20 μg/mL) | > 1000 | Y (key: X = Ki ≤ 0.1 μM; Y = 0.1 μM < Ki ≤ 1 μM; Z = Ki > 1 μM) | X (X = Ki ≤ 0.1 μM) | Z (Z = Ki > 1 μM) | 100 to 1000 | – | – | –
